In PMC3001719, “The heme sensing response regulator HssR in Staphylococcus aureus but not the homologous RR23 in Listeria monocytogenes modulates susceptibility to the antimicrobial peptide plectasin” (BMC Microbiology, 2010):

Legend:
Type in all cases: cell-based, Staphylococcus aureus
[1] = test system: S. aureus 8325-4 wild type; experiment: In vitro bacterial killing kinetics; settings: plectasin 1× MIC, TSB, 37°C, CFU after 1, 3 and 5 hours
Procedure: Overnight cultures of S. aureus wild type […], 8325-4 hssR::bursa and 8325-4 hssR::bursa/pRMC2-hssRS were diluted 1000 fold in TSB and grown 2 hours at 37°C. Samples were taken to time T = 0 and plated for CFU determination. Plectasin (1× MIC) was added, and samples were withdrawn after 1,3 and 5 hours growth at 37°C and plated for CFU determination.

[2] = test system: S. aureus 8325-4 hssR::bursa transposon mutant; experiment: Growth in TSB with plectasin; settings: plectasin 35 μg/ml, 37°C, absorbance at 600 nm
Procedure: (§1) Overnight cultures of S. aureus were diluted to an absorbance at 600 nm of 0.05 in TSB with and without 4 μM hemin and/or 35 μg/ml plectasin and grown at 37°C. Measurements of the absorbance were made every 30 minutes.

[3] = test system: S. aureus 15981 wild type; experiment: Growth in TSB with plectasin; settings: plectasin 35 μg/ml, 37°C, absorbance at 600 nm
Procedure: as §1

[4] = test system: S. aureus 8325-4 hssR::bursa/pRMC2-hssRS; experiment: Growth in TSB with plectasin; settings: plectasin 35 μg/ml, 37°C, absorbance at 600 nm
Procedure: as §1

[5] = test system: S. aureus 15981 ΔTCS15 (hssRS) mutant; experiment: Growth in TSB with plectasin; settings: plectasin 35 μg/ml, 37°C, absorbance at 600 nm
Procedure: as §1

Compound: CC[C@H](C)[C@@H]1NC(=O)[C@H](CO)NC(=O)[C@H](CCCCN)NC(=O)[C@@H]2CSSC[C@@H](C(=O)N[C@@H](Cc3ccc(O)cc3)C(=O)O)NC(=O)[C@H](CCCCN)NC(=O)[C@@H]3CSSC[C@H](NC(=O)[C@H](CCC(N)=O)NC(=O)[C@H](CCSC)NC(=O)[C@H](CC(=O)O)NC(=O)[C@H](CC(=O)O)NC(=O)[C@H](CCC(=O)O)NC(=O)[C@H](CC(=O)O)NC(=O)[C@H](Cc4c[nH]c5ccccc45)NC(=O)[C@@H]4CCCN4C(=O)CNC(=O)[C@H](CC(N)=O)NC(=O)[C@@H](NC(=O)CNC(=O)[C@H](Cc4ccccc4)NC(=O)CN)CSSC[C@H](NC(=O)[C@H](Cc4ccc(O)cc4)NC(=O)CNC(=O)CNC(=O)[C@H](CCCCN)NC(=O)[C@H](Cc4ccc(O)cc4)NC(=O)CNC(=O)[C@H](CCCCN)NC1=O)C(=O)N[C@@H](C)C(=O)N[C@@H](CCCCN)C(=O)NCC(=O)NCC(=O)N[C@@H](Cc1ccccc1)C(=O)N[C@@H](C(C)C)C(=O)N3)C(=O)N[C@@H](Cc1c[nH]cn1)C(=O)N[C@@H](CC(N)=O)C(=O)N[C@@H](Cc1c[nH]cn1)C(=O)N2 [plectasin]
- Kinetics of bacterial killing in vitro [1]: killed rapidly
- Growth in the presence of plectasin [2]: hardly affected the growth
- Growth in the presence of plectasin [3]: inhibited the growth
- Growth in the presence of plectasin [4]: inhibited the growth to a level comparable to wild type
- Growth in the presence of plectasin [5]: hardly affected the growth
